Read-outs that look alike come from different tables or passages of the source.
Columns and labels:
ZR-75-1 = test: In Vitro Cancer Cell Assay (cell viability, Cell Titer Glow, 10 days); assay type: cell-based; settings: Homo sapiens; ZR-75-1 cells; Table 2
Procedure: ZR-75-1 and T47D are breast cancer cell lines containing high KAT6A protein expression. Proliferation of these cell lines are inhibited upon treatment with a KAT6A inhibitor. Cell line MCF7 is used as a negative control. MCF7 cells have a low KAT6A protein expression and are not growth inhibited upon treatment with KAT6A inhibitors. WM-1119 is used as a positive control.
1500 cells are seeded per well and incubated overnight at 37° C. and 5% CO2. Cells are treated after 24 hours with a compound (stock solution, 10 mM in DMSO) with 9-10 dilutions and a final DMSO concentration of 0.5%. […] Test compounds are tested like WM-1119. Plates are incubated at 37° C. and 5% CO2 for 10 days. Media is replenished after every alternate day. At day 10, Cell Titer Glow is added to the wells and luminescence is recorded after 10 min incubation. Data are normalized to 100% with DMSO control and subtracting media blank. Cell viability is of the test compounds is measured.
The above procedure can be followed for determining activity in additional cell lines, for example, ZR-75-1, T47D, CHAGOK1 and other cell lines that have high expression of KAT6A. The number of cells used will be optimized based on growth rate of the individual cell lines.

[1] = biological target: T1, Recombinant KAT6A/MOZ (488-778) protein (Homo sapiens, UniProt Q92794); test: Kat6a AlphaLISA Inhibition Screening Assay; assay type: biochemical
T1 construct: Recombinant KAT6A/MOZ (488-778) protein (Active motif, Catalog #81223); purchased Active Motif 81223
In short: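 Recombinant KAT6A (488-778), 25 nM, was preincubated with compound (10-point dose response) for 60 or 10 min. It then reacted 120 min at room temperature with 200 nM biotin-H3(1-21) peptide and 400 nM acetyl-CoA, pH 8.0, with 330 nM TSA present. Acetylation was detected by AlphaLISA (anti-acetyl-lysine acceptor, streptavidin donor beads).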

[2] = 60′ pre-incubation, Table 2, read-out: Kat6A biochemical assay: IC50
[3] = 60′ pre-incubation, Table 3, read-out: Kat6A Biochemical assay: IC50

T1 sequence (Q92794 488-778): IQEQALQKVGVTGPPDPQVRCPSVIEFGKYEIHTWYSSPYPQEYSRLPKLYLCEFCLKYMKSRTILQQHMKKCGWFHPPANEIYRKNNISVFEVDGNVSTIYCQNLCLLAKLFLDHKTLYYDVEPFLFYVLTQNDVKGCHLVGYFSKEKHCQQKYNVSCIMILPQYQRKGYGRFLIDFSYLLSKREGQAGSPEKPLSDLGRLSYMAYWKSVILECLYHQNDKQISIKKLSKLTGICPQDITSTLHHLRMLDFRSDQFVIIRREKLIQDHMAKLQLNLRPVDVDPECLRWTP

Compound | EC50 (ZR-75-1) [µM] | IC50 [1, 2] [µM] | also measured
C#CC(=O)N1Cc2cnn(Cc3cc(OC)c4c(NS(=O)(=O)c5ccccc5OC)noc4c3)c2C1 [Synthetic Example 26A, 2-methoxy-N-(4-methoxy-6-((5-propioloyl-5,6-dihydropyrrolo[3,4-c]pyrazol-1(4H)-yl)methyl)benzo[d]isoxazol-3-yl)benzenesulfonamide] | ≤ 10 | ≤ 10 | 
C#CC(=O)N1Cc2cnn(Cc3cc(OC)c4c(NS(=O)(=O)CC5CCCCC5)noc4c3)c2C1 [Synthetic Example 30A, 1-cyclohexyl-N-(4-methoxy-6-((5-propioloyl-5,6-dihydropyrrolo[3,4-c]pyrazol-1(4H)-yl)methyl)benzo[d]isoxazol-3-yl)methanesulfonamide] | ≤ 10 | ≤ 10 | 
C=CS(=O)(=O)NCc1ccn(Cc2cc(OC)c3c(NS(=O)(=O)Cc4ccccc4)noc3c2)n1 [Synthetic Example 21, N-((1-((4-methoxy-3-((phenylmethyl)sulfonamido)benzo[d]isoxazol-6-yl)methyl)-1H-pyrazol-3-yl)methyl)ethenesulfonamide] | > 10 | ≤ 10 | 
C#CC(=O)N1Cc2cn(Cc3cc(OC)c4c(NS(=O)(=O)c5c(OC)cccc5OC)noc4c3)nc2C1 [Synthetic Example 25B, 2,6-dimethoxy-N-(4-methoxy-6-((5-propioloyl-5,6-dihydropyrrolo[3,4-c]pyrazol-2(4H)-yl)methyl)benzo[d]isoxazol-3-yl)benzenesulfonamide] | > 10 | ≤ 10 | 
C=CS(=O)(=O)NCc1cnn(Cc2cc(OC)c3c(NS(=O)(=O)c4c(OC)cccc4OC)noc3c2)c1 [Synthetic Example 33, 2,6-dimethoxy-N-(4-methoxy-6-((4-(vinylsulfonamidomethyl)-1H-pyrazol-1-yl)methyl)benzo[d]isoxazol-3-yl)benzenesulfonamide] | ≤ 10 | ≤ 10 | 
C=CC(=O)NCc1ccn(Cc2cc(OC)c3c(NS(=O)(=O)Cc4ccccc4)noc3c2)n1 [Synthetic Example 20, N-((1-((4-methoxy-3-((phenylmethyl)sulfonamido)benzo[d]isoxazol-6-yl)methyl)-1H-pyrazol-3-yl)methyl)acrylamide] | > 10 | ≤ 10 | 
C=CS(=O)(=O)NCc1cnn(Cc2cc(OC)c3c(NS(=O)(=O)c4ccccc4OC)noc3c2)c1 [Synthetic Example 32, 2-methoxy-N-(4-methoxy-6-((4-(vinylsulfonamidomethyl)-1H-pyrazol-1-yl)methyl)benzo[d]isoxazol-3-yl)benzenesulfonamide] | ≤ 10 | ≤ 10 | 
C#CC(=O)N1CC[C@H](OCc2cc(OC)c3c(NS(=O)(=O)c4cc(CC)ccc4OC)noc3c2)C1 [compound 109, (S)-5-ethyl-2-methoxy-N-(4-methoxy-6-(((1-propioloylpyrrolidin-3-yl)oxy)methyl)benzo[d]isoxazol-3-yl) benzenesulfonamide] |  |  | IC50 [1, 3]: ≤ 10 µM
C#CC(=O)NCc1ccn(Cc2cc(OC)c3c(NS(=O)(=O)CC4CCCCC4)noc3c2)n1 [Synthetic Example 8, N-((1-((3-((cyclohexylmethyl)sulfonamido)-4-methoxybenzo[d]isoxazol-6-yl)methyl)-1H-pyrazol-3-yl)methyl)propiolamide] |  |  | IC50 ([1]; 10′ pre-incubation, Table 2, read-out: Kat6A biochemical assay: IC50): ≤ 10 µM
C=CS(=O)(=O)NCCOCc1cc(OC)c2c(NS(=O)(=O)c3cc(CC)ccc3OC)noc2c1 [compound 107] |  |  | IC50 [1, 3]: ≤ 10 µM
C#CC(=O)N1Cc2cnn(Cc3cc(OC)c4c(NS(=O)(=O)c5cc(CC)ccc5OC)noc4c3)c2C1 [compound 99, 5-ethyl-2-methoxy-N-(4-methoxy-6-((5-propioloyl-5,6-dihydropyrrolo[3,4-c]pyrazol-1(4H)-yl)methyl)benzo[d]isoxazol-3-yl)benzenesulfonamide] |  |  | IC50 [1, 3]: ≤ 10 µM
C#CC(=O)NCCCOCc1cc(OC)c2c(NS(=O)(=O)c3cc(CC)ccc3OC)noc2c1 [compound 89, N-(3-((3-((5-ethyl-2-methoxyphenyl)sulfonamido)-4-methoxybenzo[d]isoxazol-6-yl)methoxy)propyl) propiolamide] |  |  | IC50 [1, 3]: ≤ 10 µM
COc1ccccc1S(=O)(=O)Nc1noc2cc(Cn3cc(CNS(=O)(=O)c4cccnc4Cl)cn3)cc(OC)c12 [compound 84, 2-chloro-N-((1((4methoxy3((2methoxyphenyl)sulfonamido)benzo[d]isoxazol-6-yl)methyl)-1H-pyrazol-4-yl)methyl) pyridine-3-sulfonamide] |  |  | IC50 [1, 3]: ≤ 10 µM
C#CC(=O)NCCOCc1cc(OC)c2c(NS(=O)(=O)c3cc(CC)ccc3OC)noc2c1 [compound 88, N-(2-((3-((5-ethyl-2-methoxyphenyl)sulfonamido)-4-methoxybenzo[d]isoxazol-6-yl)methoxy)ethyl)propiolamide] |  |  | IC50 [1, 3]: ≤ 10 µM
C#CC(=O)NCc1cnn(-c2cc(C)nc(C(=O)NNS(=O)(=O)c3ccccc3F)c2)c1 [compound 91, N-((1-(2-(2-((2-fluorophenyl)sulfonyl) hydrazine-1-carbonyl)-6-methylpyridin-4-yl)-1H-pyrazol-4-yl)methyl) propiolamide] |  |  | IC50 [1, 3]: ≤ 10 µM
COc1cc(Cn2cccn2)cc2c1c(NS(=O)(=O)c1ccccc1F)nn2C [compound 122, N-(6-((1H-pyrazol-1-yl)methyl)-4-methoxy-1-methyl-1H-indazol-3-yl)-2-fluorobenzenesulfonamide] |  |  | IC50 ([1]; 10′ pre-incubation, Table 3, read-out: Kat6A Biochemical assay: IC50): 20 to 50 µM
C#CC(=O)NCc1cnn(Cc2cc(OC)c3c(NS(=O)(=O)c4ccccc4OC)noc3c2)c1 [Synthetic Example 31, N-((1-((4-methoxy-3-((2-methoxyphenyl)sulfonamido)benzo[d]isoxazol-6-yl)methyl)-1H-pyrazol-4-yl)methyl) propiolamide] | ≤ 10 | ≤ 10 | 

Further lines, with some results ahead:

EC50 (ZR-75-1) [µM] | IC50 [1, 2] [µM] | Compound | also measured
≤ 10 | ≤ 10 | C#CC(=O)NCc1cnn(Cc2cc(OC3CC3)c3c(NS(=O)(=O)c4ccccc4OC)noc3c2)c1 [Synthetic Example 43, N-((1-((4-cyclopropoxy-3-((2-methoxyphenyl)sulfonamido)benzo[d]isoxazol-6-yl)methyl)-1H-pyrazol-4-yl)methyl)propiolamide] | 
≤ 10 | ≤ 10 | C=CS(=O)(=O)NCc1cnn(Cc2cc(OC)c3c(NS(=O)(=O)CC4CCCCC4)noc3c2)c1 [compound 6] | 
≤ 10 | ≤ 10 | C#CC(=O)NCc1cnn(Cc2cc(OC)c3c(NS(=O)(=O)c4ccccc4C(=O)O)noc3c2)c1 [Synthetic Example 37, 2-(N-(4-methoxy-6-((4-(propiolamidomethyl)-1H-pyrazol-1-yl)methyl)benzo[d]isoxazol-3-yl)sulfamoyl)benzoic acid] | 
≤ 10 | ≤ 10 | C#CC(=O)NCc1cnn(Cc2cc(OC)c3c(NS(=O)(=O)c4ccccc4C(=O)OC)noc3c2)c1 [Synthetic Example 36, methyl 2-(N-(4-methoxy-6-((4-(propiolamidomethyl)-1H-pyrazol-1-yl)methyl)benzo[d]isoxazol-3-yl)sulfamoyl)benzoate] | 
 | ≤ 10 | C#CC(=O)NCc1cnn(Cc2cc(OC)c3c(NS(=O)(=O)c4ccccc4C(=O)NC)noc3c2)c1 [compound 68, 2-(N-(4-methoxy-6-((4-(propiolamidomethyl)-1H-pyrazol-1-yl)methyl)benzo[d]isoxazol-3-yl)sulfamoyl)-N-methylbenzamide] | 
 | ≤ 10 | C=CC(=O)N(C)Cc1cnn(Cc2cc(OC)c3c(NS(=O)(=O)c4ccccc4OC)noc3c2)c1 [Synthetic Example 47, N-((1-((4-methoxy-3-((2-methoxyphenyl)sulfonamido)benzo[d]isoxazol-6-yl)methyl)-1H-pyrazol-4-yl)methyl)-N-methylacrylamide] | 
 | ≤ 10 | C=CC(=O)N1CCN(c2ccccc2-c2cc(OC)c3c(NS(=O)(=O)c4c(OC)cccc4OC)noc3c2)CC1 [Synthetic Example 58, N-(6-(2-(4-acryloylpiperazin-1-yl)phenyl)-4-methoxybenzo[d]isoxazol-3-yl)-2,6-dimethoxybenzenesulfonamide] | 
 | ≤ 10 | C#CC(=O)NCc1cnn(Cc2cc(OC)n3c(NS(=O)(=O)c4ccccc4OC)nnc3c2)c1 [Synthetic Example 66, N-((1-((5-methoxy-3-((2-methoxyphenyl)sulfonamido)-[1,2,4]triazolo[4,3-a]pyridin-7-yl)methyl)-1H-pyrazol-4-yl)methyl)propiolamide] | 
 | ≤ 10 | C#CC(=O)NC1CCN(Cc2cc(OC)c3c(NS(=O)(=O)c4ccccc4OC)noc3c2)C1 (stereo not drawn) [Synthetic Example 48, N-(1-((4-methoxy-3-((2-methoxyphenyl)sulfonamido)benzo[d]isoxazol-6-yl)methyl)pyrrolidin-3-yl)propiolamide] | 
 | ≤ 10 | COc1ccccc1S(=O)(=O)Nc1noc2cc(Cn3cc(CNS(=O)(=O)c4c(F)c(F)c(F)c(F)c4F)cn3)cc(OC)c12 [compound 70, 2,3,4,5,6-pentafluoro-N-((1-((4-methoxy-3-((2-methoxyphenyl)sulfonamido)benzo[d]isoxazol-6-yl)methyl)-1H-pyrazol-4-yl)methyl)benzenesulfonamide] | 

Source: patent publication US11976075B2, “Inhibitors of the MYST family of lysine acetyl transferases” (Isosterix, Inc., priority 2022, dated 2024)
